The results in this text go back to ChEMBL document CHEMBL1201862, “PubChem BioAssay data set” (2004).

Test systems include OVCAR-3; UACC-257; NCI-H460; COLO 205; CCRF-CEM; UO-31; MDA-MB-435; K562; HCT-15; A498; HCC 2998; NCI-H23; NCI-H522; HOP-62; IGROV-1; Hs-578T; SF-539; U-251; CAKI-1; HL-60.
What all share (assay): DTP human tumour cell line panel, 48 h

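Following 48 hours of exposure in 96-well plates, responses at five concentrations were used to interpolate endpoints linearly. The concentration for 50% growth inhibition is given as GI50.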 The source made the active and inactive calls. Rule as the data show it: active = GI50 up to about 1.1 µM and inactive = higher. Where only a bound is given, the exact number is not on record here.

By GI50 is commonly meant the concentration at which growth is held to half of that of the control. For the compound `O=C(/C=C/c1ccc(O)c(O)c1)OCCc1ccc2ccccc2c1`, the GI50 was 3.26 µM (inactive) with OVCAR-3; 11 µM (inactive) in the assay with UACC-257; 7.05 µM (inactive) in the assay with NCI-H460; 4.59 µM (inactive) in the assay on COLO 205; 4.63 µM (inactive) with CCRF-CEM; 3.19 µM (inactive) in the assay with UO-31. Further, the GI50 in the assay on MDA-MB-435 was 2.54 µM (inactive); in the assay on K562, 2.99 µM (inactive); in the assay with HCT-15, 2.49 µM; with A498, 15.2 µM (inactive); with HCC 2998, 17 µM (inactive); with NCI-H23, 3.42 µM (inactive). Moreover, the GI50 with NCI-H522 was 2.38 µM (inactive); in the assay on HOP-62, 13.2 µM (inactive); in the assay on IGROV-1, 2.32 µM (inactive); in the assay on Hs-578T it was 4.79 µM (inactive); in the assay on SF-539, 5.83 µM (inactive); with U-251 it was 10.8 µM (inactive).

With `O=C(c1cccc(C(=O)c2ccc3c4c(cccc24)C(=O)N(c2ccccc2)C3=O)c1)c1ccc2c3c(cccc13)C(=O)N(c1ccccc1)C2=O`, the GI50 in the assay on OVCAR-3 was > 100 µM (inactive); in the assay on CAKI-1 it was > 100 µM (inactive); in the assay on UACC-257, 72.8 µM (inactive); in the assay with NCI-H460, > 100 µM (inactive); in the assay with COLO 205, > 100 µM (inactive); in the assay on UO-31, > 100 µM (inactive). Also, the GI50 was > 100 µM (inactive) with MDA-MB-435; > 100 µM (inactive) in the assay on K562; above 100 µM in the assay on HCT-15; 17.3 µM (inactive) in the assay on A498; > 100 µM (inactive) in the assay with HCC 2998; > 100 µM (inactive) in the assay with NCI-H23. Further, the GI50 in the assay on NCI-H522 is > 100 µM (inactive); in the assay on HOP-62 it was 88.7 µM (inactive); with IGROV-1, 63.7 µM (inactive); in the assay with Hs-578T, 52.8 µM (inactive); in the assay with SF-539, > 100 µM (inactive); in the assay on U-251 it was > 100 µM (inactive).

With `Cc1ccc2nc(Cl)c(/C=N/N3C(=O)/C(=C/c4ccccc4S)N=C3c3ccccc3)cc2c1`, the GI50 in the assay on OVCAR-3 was 4.8 µM (inactive); with CAKI-1, 44.6 µM (inactive); in the assay with UACC-257, 68.5 µM (inactive); in the assay with NCI-H460, 31.4 µM (inactive); with COLO 205 it was 28.2 µM (inactive); in the assay with CCRF-CEM, 15.5 µM (inactive). Besides, the GI50 was 21.9 µM (inactive) in the assay on UO-31; 12.6 µM (inactive) in the assay with MDA-MB-435; 11.7 µM (inactive) in the assay on K562; 37.8 µM with HCT-15; 29.5 µM (inactive) in the assay with A498; 45.3 µM (inactive) in the assay on HCC 2998. The GI50 with HOP-62 is 27.7 µM (inactive); with IGROV-1 it was 29.1 µM (inactive); with Hs-578T, 22.3 µM (inactive); in the assay with SF-539, 15.2 µM (inactive); in the assay on HL-60, 15.5 µM (inactive); in the assay on U-251 it was 28.1 µM (inactive).

Regarding `Nc1cc2ncnc(Nc3cccc(Br)c3)c2cn1`, the GI50 in the assay with OVCAR-3 is 15.8 µM (inactive); in the assay with CAKI-1 it was 32.4 µM (inactive); with UACC-257 it was 39.9 µM (inactive); with NCI-H460, 30 µM (inactive); in the assay with COLO 205, 50.4 µM (inactive); with CCRF-CEM it was 96.8 µM (inactive). Further, the GI50 with UO-31 was 21.5 µM (inactive); with MDA-MB-435, 54.3 µM (inactive); with K562 it was > 100 µM (inactive); with HCT-15 it was 12.3 µM; with A498 it was 3.61 µM (inactive); in the assay with NCI-H23, 57 µM (inactive). Also, the GI50 is 29.4 µM (inactive) in the assay with HOP-62; > 10 µM (inactive) in the assay with IGROV-1; 33.7 µM (inactive) in the assay on Hs-578T; 21.9 µM (inactive) in the assay with SF-539; > 100 µM (inactive) in the assay with HL-60; 18.7 µM (inactive) in the assay with U-251.

As for `COC(=O)/C=C(\CC(=O)OC)n1nnnc1[C@@H]1C[C@H](COC(c2ccccc2)(c2ccccc2)c2ccccc2)[C@H]2OC(C)(C)O[C@H]21`, the GI50 is > 100 µM (inactive) with OVCAR-3; > 100 µM (inactive) in the assay on CAKI-1; > 100 µM (inactive) in the assay on UACC-257; 39.3 µM (inactive) in the assay with COLO 205; 22.9 µM (inactive) in the assay with CCRF-CEM; > 100 µM (inactive) with UO-31. Besides, the GI50 in the assay on MDA-MB-435 is > 100 µM (inactive); with K562 it was 65.5 µM (inactive); in the assay on A498 it was > 100 µM (inactive); in the assay on NCI-H522, 51.6 µM (inactive); in the assay on HOP-62, > 100 µM (inactive); in the assay with IGROV-1, 60.5 µM (inactive). Further, the GI50 in the assay on Hs-578T was 68.4 µM (inactive); in the assay on SF-539, > 100 µM (inactive); with HL-60, > 100 µM (inactive); in the assay with U-251, > 100 µM (inactive).

Regarding `COc1ccc(/N=N/C(=N\c2ccccc2)c2ccc(N(CCC#N)CCC#N)cc2)cc1`, the GI50 was 18 µM (inactive) in the assay with OVCAR-3; 80.7 µM (inactive) with CAKI-1; 23.8 µM (inactive) with UACC-257; 36.5 µM (inactive) in the assay with NCI-H460; 14.1 µM (inactive) in the assay with COLO 205; 80.9 µM (inactive) in the assay with UO-31. For the same compound, the GI50 was 56.4 µM (inactive) with MDA-MB-435; 31.3 µM (inactive) with K562; 81.3 µM in the assay on HCT-15; 67.6 µM (inactive) in the assay with A498; 33.2 µM (inactive) with HCC 2998; 51.4 µM (inactive) in the assay with NCI-H23. Besides, the GI50 was 22.7 µM (inactive) in the assay on NCI-H522; 89.5 µM (inactive) in the assay with HOP-62; 23.4 µM (inactive) in the assay on IGROV-1; 45.8 µM (inactive) in the assay with Hs-578T; 28 µM (inactive) in the assay with SF-539; 31.4 µM (inactive) with U-251.

Take `O=C(OCc1ccccc1)N1CCNCCN(C(=O)OCc2ccccc2)CCNCC1`: the GI50 was 35.4 µM (inactive) in the assay on OVCAR-3; 15 µM (inactive) with CAKI-1; 21.4 µM (inactive) in the assay with UACC-257; 21.6 µM (inactive) in the assay with NCI-H460; 36.5 µM (inactive) in the assay on CCRF-CEM; 7.03 µM (inactive) in the assay with UO-31. For the same compound, the GI50 in the assay on MDA-MB-435 was 24 µM (inactive); in the assay with K562, 25.5 µM (inactive); with HCT-15, 32.5 µM; in the assay on A498, 27.5 µM (inactive); in the assay with NCI-H522, 16.3 µM (inactive); in the assay with HOP-62, 16.9 µM (inactive). Also, the GI50 is 32.2 µM (inactive) in the assay on IGROV-1; 21.2 µM (inactive) in the assay on Hs-578T; 14.6 µM (inactive) with SF-539; 24.3 µM (inactive) in the assay with HL-60; 22 µM (inactive) with U-251.

`COc1ccc(CNc2cc(=O)n(C)c(=O)[nH]2)cc1`: the GI50 in the assay with OVCAR-3, in the assay on CAKI-1, with UACC-257, with NCI-H460, in the assay with COLO 205 and in the assay with CCRF-CEM was > 100 µM (inactive) throughout. Further, the GI50 in the assay on UO-31 was > 100 µM (inactive); in the assay on MDA-MB-435, > 100 µM (inactive); with K562, > 100 µM (inactive); in the assay with HCT-15, above 100 µM; in the assay with A498 it was > 100 µM (inactive); in the assay with HCC 2998 it was > 100 µM (inactive). Also, the GI50 with NCI-H23, in the assay on NCI-H522, with HOP-62, in the assay with IGROV-1, with Hs-578T and with SF-539 was > 100 µM (inactive) each time. The GI50 in the assay with U-251 was > 100 µM (inactive).

For `Cc1cn([C@H]2C[C@@H](N3C(=O)c4ccccc4C3=O)[C@@H](CO[Si](C)(C)C(C)(C)C)O2)c(=O)[nH]c1=O`, the GI50 was > 100 µM (inactive) in the assay with OVCAR-3; 53.3 µM (inactive) with CAKI-1; > 100 µM (inactive) in the assay on UACC-257; > 100 µM (inactive) with NCI-H460; > 100 µM (inactive) with COLO 205; 36 µM (inactive) in the assay on CCRF-CEM. Moreover, the GI50 was 52.5 µM (inactive) in the assay with UO-31; > 100 µM (inactive) with MDA-MB-435; 52.5 µM (inactive) with K562; above 100 µM in the assay on HCT-15; > 100 µM (inactive) in the assay with A498; > 100 µM (inactive) in the assay on HCC 2998. For the same compound, the GI50 in the assay with NCI-H23 is 31.6 µM (inactive); in the assay on NCI-H522, 50.4 µM (inactive); in the assay with HOP-62 it was 20.7 µM (inactive); with IGROV-1, 55 µM (inactive); in the assay with Hs-578T, 21.2 µM (inactive); in the assay with SF-539, 27.5 µM (inactive). In the assay on U-251, the GI50 is 34.9 µM (inactive).

With `COc1ccc(-n2c(=O)n(C)c(=O)n2-c2ccc(OC)cc2)cc1`, the GI50 with OVCAR-3, in the assay with CAKI-1, in the assay with UACC-257, in the assay on NCI-H460, with COLO 205 and with CCRF-CEM was > 100 µM (inactive) throughout. In addition, the GI50 in the assay with UO-31 was > 100 µM (inactive); in the assay on MDA-MB-435, > 100 µM (inactive); in the assay with K562, > 100 µM (inactive); in the assay on HCT-15 it was above 100 µM; in the assay on A498, > 100 µM (inactive); in the assay on NCI-H23, > 100 µM (inactive). Also, the GI50 was > 100 µM (inactive) in the assay with HOP-62; > 100 µM (inactive) in the assay with IGROV-1; 9.48 µM (inactive) in the assay on Hs-578T; > 100 µM (inactive) in the assay on SF-539; > 100 µM (inactive) in the assay on HL-60; > 100 µM (inactive) in the assay on U-251.

Turning to `CSC1=N/C(=C\c2ccc(Cl)cc2)C(=O)N1CN1CCCCC1`, the GI50 was 34.2 µM (inactive) in the assay on OVCAR-3; 60.1 µM (inactive) in the assay with COLO 205; 26.5 µM (inactive) in the assay on CCRF-CEM; 23.6 µM (inactive) in the assay with UO-31; 35.9 µM (inactive) in the assay with MDA-MB-435; 53.7 µM (inactive) in the assay on K562. For the same compound, the GI50 is 25.9 µM in the assay with HCT-15; 17.7 µM (inactive) in the assay on A498; 64.3 µM (inactive) with NCI-H23; 27.4 µM (inactive) with NCI-H522; 20.4 µM (inactive) with HOP-62; 7.38 µM (inactive) in the assay on IGROV-1. The GI50 is 20.7 µM (inactive) in the assay with Hs-578T and 47.8 µM (inactive) in the assay on U-251.
